From patent US20020151599A1, “FORMULATIONS HAVING AN ANTIVIRAL ACTION” (priority 1999, published 2002)

Assays:
solubility in solvents = type: physicochemical
Excerpt: By virtue of its solubility profile, the compound is readily miscible, in some cases using solubilizers, with oils, fats and emulsions and, in view of its profile of properties, can be used in combination with other known light protection filters. […] In view of the property profile of isoquercitrin, it is easy for the person skilled in the art to choose suitable solvents and additives depending on the desired preparation product. It is particularly easy to prepare emulsions, gels or emulsion care sticks with isoquercitrin. It is, however, also possible to prepare all other cosmetic formulations, such as ointments, creams, lotions, oils, sticks and sprays, and also pharmaceutical formulations in solid or liquid form using appropriate additives.

herpes simplex viruses = settings: compounds of the same aglycone compared; quercetin active only in very high doses, if at all; cited from earlier work

SMILES | solubility in polar solvents (solubility in solvents; ethanol or 1,2-propylene glycol) | solubility in glycerol (solubility in solvents; glycerol, forms a slightly cloudy solution) | skin tolerance, toxic or allergic reaction (skin tolerability) | antiviral effects (herpes simplex viruses)
O=c1c(O[C@@H]2O[C@H](CO)[C@@H](O)[C@H](O)[C@H]2O)c(-c2ccc(O)c(O)c2)oc2cc(O)cc(O)c12 [isoquercitrin] | particularly readily soluble | soluble in glycerol | well tolerated by the skin | –
O=c1c(O)c(-c2ccc(O)c(O)c2)oc2cc(O)cc(O)c12 [quercetin] | – | – | – | virtually no antiviral effects
